How the values were obtained:
[1] = tested on: E. coli SSB; design: method as in PMID 27609050; conditions: ssDNA interaction; cited from earlier work
[2] = target: T1, hSSB1 (Homo sapiens, UniProt Q9BQ15); experiment: Electrophoretic mobility shift assay (EMSA), competition with Cy5-labelled ssDNA probe; format: binding; conditions: tested from 200 to 0.091 μM
T1 construct: 6xHis (N); made in house; host or cells: E. coli BL21 (DE3*)
Protocol: These were performed in 10 μL reactions of 10 mM Tris (pH 7.5), 100 mM NaCl, 0.01% IGEPAL, and 1 mM DTT. Two 5 μL solutions were prepared. The first mix contained hSSB1 with the compound of interest, which were incubated together for 10 min before the addition of the probe molecule, Cy5-labelled In3-PS. The combined solution was incubated for 30 min at 37 °C, before loading dye was added and the samples were loaded into 10% polyacrylamide TBE gels. These gels were run for 1.5 h in a cold room at 80 V before being imaged using a ChemiDoc Imaging System (BioRad, Hercules, CA, USA) and quantified using ImageStudio Lite (Version 5.2) software.
The optimal conditions for the EMSAs were established using a titration matrix of hSSB1 and Cy5-labelled In3-PD concentrations. Concentrations of hSSB1 from 1000 to 0.26 nM and Cy5-labelled In3-PD at 1 nM and 5 nM were tested. The final conditions were established as 15 nM hSSB1 and 1.5 nM Cy5-labelled In3-PS, where the In3-PS is 100% bound. The concentrations of the MS-ML compounds of Merck KGaA, Darmstadt, Germany, were tested from 100 to 0.046 μM, and the concentrations of the novel DAZLN compounds were tested from 200 to 0.091 μM.

[3] = target: T1, hSSB1; experiment: AlphaLISA competition dose-response binding assay; conditions: for binding to hSSB1 in the AlphaLISA: triplicate; for Kd: as restated in discussion, read-out: affinity to hSSB1 in AlphaLISA binding assays
Protocol: To analyse the binding of compounds to hSSB1 and design a screening assay, we used Perkin Elmer’s AlphaLISA technology. The full assay design is described in the Supplementary Information. The optimal assay conditions were determined with a series of titration matrices to be 0.5 nM hSSB1, 5 nM In3-PD-biotin, 1 nM anti-hSSB1 antibody, 10 μg/mL SA donor beads, and 5 μg/mL protein G acceptor beads in a 16 μL reaction volume. These were combined in a buffer containing 10 mM Tris (pH 7.5), 100 mM NaCl, 0.1% β-mercaptoethanol, and 0.01% IGEPAL. First, an 8 μL mix of hSSB1, anti-hSSB1 antibody, and acceptor beads was prepared, which was added to the compound of interest and incubated for 1 h. Second, an 8 μL aliquot of a solution containing In3-PD-biotin and SA donor beads was added to the well. This was incubated before imaging with an EnSight Multimode Plate Reader (PerkinElmer, Shelton, CT, USA) at 10, 60, and 120 min. The assay was designed in a competition format so that the Cheng–Prusoff equation was met and the IC50 approximated the Kd.
Dose–response curves were obtained for hit compounds and compared with TDRL-551. The same AlphaLISA competition format was used to determine the IC50/Kd of compounds binding to hSSB1. Each compound was dissolved in DMSO before being dispensed into a white 384-well microplate (PerkinElmer, Shelton, CT, USA) using a FlexDrop iQ. […]
1.1.1 Design of the AlphaLISA screening assay
To test whether the compounds bind to hSSB1 and to design an effective screening assay, we used AlphaLISA technology from Perkin Elmer. This technology involves binding a biotin-labelled control DNA oligonucleotide (btn-In3-PD) to a streptavidin-coated donor (SA-donor) bead. hSSB1 is bound to an anti-hSSB1 sheep antibody as described previously, which binds to Protein G-coated acceptor beads. When hSSB1 and btn-In3-PD bind, they bring the two beads close together, and with excitation at 680 nm by laser irradiation, the phthalocyanine in the donor bead excites ambient oxygen to a reactive form of O2. When this is within 200 nm of a europium-containing acceptor bead (during a binding event), the reactive oxygen is transferred to the thioxene derivative, producing light at 615 nm. Without the acceptor bead, oxygen returns to its ground state. This lends the assay to a competition-based format for high- […]
A titration matrix is required to optimise assay conditions to develop an AlphaLISA assay that accurately acquires results and subsequently follows the Cheng-Prusoff equation to report IC50’s as a molecule Kd. […] This is determined by finding the hook point of signal, which indicates the highest signal before the bead is saturated, after which a decrease in signal is observed. […]

[4] = target: T1, hSSB1; experiment: AlphaLISA Mini Library screen; format: binding; conditions: for inhibition at 10 µM: triplicate
Protocol: In parallel to the rational design of small-molecule inhibitors, we acquired access to the Open Innovation Mini Library of small compounds from Merck KGaA, Darmstadt, Germany. This library consisted of 80 compounds at 10 mM in DMSO that had been investigated against other targets, from receptor blockers to protein inhibitors. The goal of screening this library was to test various scaffolds for their affinity to hSSB1.
Using a FlexDrop iQ, 16 nL of each compound was dispensed onto a white low-volume 384-well microplate (PerkinElmer, Shelton, CT, USA) in triplicate at an assay concentration of 10 μM. In3-PS was used as the positive control binding entity at a concentration of 1 μM. The AlphaLISA assay conditions are described in Section 2.4. The hit cut-off used was an average inhibition of 30% across the three repeats. The plate was read using an EnSight Multimode Plate Reader (PerkinElmer, Shelton, CT, USA) at 10, 60, and 120 min.

[5] = tested on: U2OS cells; experiment: CellTitre-Glo cytotoxicity assay; format: cell-based, human; conditions: 48 h incubation, 30—0.0492 μM, CTG
Protocol: The osteosarcoma cell line U2OS was purchased from the American Type Culture Collection (ATCC) and seeded at a density of 500 cells/well in a 384-well plate. They were maintained at 37 °C in a humidified atmosphere containing 5% CO2 in Roswell Park Memorial Institute […] (RPMI) medium (ThermoFisher Scientific, Inc., Brisbane, Australia) supplemented with 10% (v/v) heat-inactivated foetal bovine serum (FBS) (ThermoFisher Scientific). A cytotoxicity assay was conducted to test the impact of the three Merck KGaA, Darmstadt, Germany, compounds (MS-ML24, MS-ML25, MS-ML26) on cell viability. Increasing concentrations of each MS-ML compound were added from […] in serial dilutions of 2.5 (n = 4). The cells were incubated with the compound for 48 h before the CellTitre-Glo (CTG) (Promega) assay was performed as per the manufacturer’s instructions. The plate was read on an EnSight Multimode Plate Reader (PerkinElmer, Shelton, CT, USA).

T1 sequence (Q9BQ15 whole entry): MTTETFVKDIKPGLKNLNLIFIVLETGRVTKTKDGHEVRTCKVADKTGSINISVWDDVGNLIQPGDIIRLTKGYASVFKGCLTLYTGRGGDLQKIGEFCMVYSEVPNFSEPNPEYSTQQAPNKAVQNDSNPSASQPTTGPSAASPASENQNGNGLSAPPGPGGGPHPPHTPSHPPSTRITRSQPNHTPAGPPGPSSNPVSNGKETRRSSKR

**Q.** With `O=c1cc2oc3cc(O)c(O)cc3c(-c3ccccc3O)c-2cc1O` [9-hydroxyphenylfluoron] as the compound, how does the “concentration at which 50% bound” value [1] read?
**A.** Its value is ~ 25 μM.

**Q.** What does the source list for `COc1ccc2cc([C@H]3CC(c4cn(C)c5cc(OC)ccc45)=NN3)ccc2c1` [DAZLN-51]?
**A.** binding to hSSB1 / inhibition in the EMSA [2]: no inhibition was observed; binding to hSSB1 in the AlphaLISA [3]: no binding

**Q.** With `COc1ccc2cc([C@H]3CC(c4cn(C)c5cc(OC)ccc45)=NN3C(=O)CCCC(=O)NCC(=O)N3CCOCC3)ccc2c1` [DAZLN-56] as the compound, how does the “binding to hSSB1 / inhibition in the EMSA” value [2] read?
**A.** Its value is “not reflected in the EMSA”.

**Q.** And the “binding to hSSB1 in the AlphaLISA” value [3]?
**A.** The value was “low level of binding”.

**Q.** What does the source list for `CCCCCCN(Cc1ccc(C#Cc2ccc(CCCC)cc2)cc1)c1ccc(O)c(C(=O)O)c1` [MS-ML24]?
**A.** inhibition at 10 µM [4]: > 45%; Kd [3]: 143 nM

**Q.** With `CCCCCCN(Cc1ccc(C#Cc2ccc(CCCC)cc2)cc1)C(=O)c1ccc(O)c(C(=O)O)c1` [MS-ML25] as the compound, how does the inhibition at 10 µM [4] read?
**A.** Its inhibition at 10 µM is > 45%.

**Q.** What does the source list for `CCCCCCN(Cc1ccc(C#Cc2ccc(CCCC)cc2)cc1)c1ccc(F)c(C(=O)O)c1` [MS-ML26]?
**A.** result in initial screen relative to hit threshold ([4]; 10 μM, hit cut-off average inhibition of 30%): slightly lower than the threshold set for the screen; Kd [3]: 198 nM

**Q.** Which “cytotoxic effect in U2OS cells” value [5] does the source give for `CCOc1ccc2cc(C3CC(c4ccc(I)cc4)=NN3C(=O)CCCC(=O)O)c(Cl)nc2c1` (stereo not drawn) [TDRL-551] here?
**A.** The value was “no cytotoxic effect”.

**Q.** Which “concentration at which 50% bound” value [1] does the source give for `O=c1c(O)cccc2cc(O)c(O)c(O)c12` [purpurogallin] here?
**A.** The value was ~ 25 μM.

From publication PMC10669474, “An Exploration of Small Molecules That Bind Human Single-Stranded DNA Binding Protein 1” (Biology, 2023)
